Read-outs that look alike come from different tables or passages of the source.
How the values were obtained:
Format in all cases: cell-based
[1] = molecular target: PI3K-α (Homo sapiens, UniProt P42336); experiment: Assay c) PI3K cellular potency (phospho-Akt T308 ELISA in BT474 cells); conditions: BT474 cells, 2 h, phospho-AKT T308; may be geometric mean of several tests; read-out: Assay c) PI3Kα Cell IC50
Description: Assay c): PI3K Cellular Potency
This assay was used to measure PI3K-α inhibition in cells. PDK1 was identified as the upstream activation loop kinase of protein kinase B (Akt 1), which is essential for the activation of PKB. Activation of the lipid kinase phosphoinositide 3 kinase (PI3K) is critical for the activation of PKB by PDK1.
Following ligand stimulation of receptor tyrosine kinases, PI3K is activated, which converts PIP2 to PIP3, which is bound by the PH domain of PDK1 resulting in recruitment of PDK1 to the plasma membrane where it phosphorylates AKT at Thr308 in the activation loop.
The aim of this cell-based mode of action assay is to identify compounds that inhibit PDK activity or recruitment of PDK1 to membrane by inhibiting PI3K activity. Phosphorylation of phospho-Akt (T308) in BT474c cells following treatment with compounds for 2 h is a direct measure of PDK1 and indirect measure of PI3K activity.
BT474 cells (human breast ductal carcinoma, ATCC HTB-20) were seeded into black 384 well plates (Costar, #3712) at a density of 5600 cells/well in DMEM containing 10% FBS and 1% glutamine and allowed to adhere overnight.
The following morning compounds in 100% DMSO were added to assay plates by acoustic dispensing. After a 2 h incubation at 37° C. and 5% CO2, the medium was aspirated and the cells were lysed with a buffer containing 25 mM Tris, 3 mM EDTA, 3 mM EGTA, 50 mM sodium fluoride, 2 mM Sodium orthovanadate, 0.27M sucrose, 10 mM β-glycerophosphate, 5 mM sodium pyrophosphate, 0.5% Triton X-100 and complete protease inhibitor cocktail tablets (Roche #04 693 116 001, used 1 tab per 50 ml lysis buffer).
After 20 minutes, the cell lysates were transferred into ELISA plates (Greiner #781077) which had been pre-coated with an anti total-AKT antibody in PBS buffer and non-specific binding was blocked with 1% BSA in PBS containing 0.05% Tween 20. Plates were incubated over night at 4° C. The next day the plates were washed with PBS buffer containing 0.05% Tween 20 and further incubated with a mouse monoclonal anti-phospho AKT T308 for 2 h. Plates were washed again as above before addition of a horse anti-mouse-HRP conjugated secondary antibody. Following a 2 h incubation at r.t., plates were washed and QuantaBlu substrate working solution (Thermo Scientific #15169, prepared according to provider's instructions) was added to each well. The developed fluorescent product was stopped after 60 minutes by addition of Stop solution to the wells. Plates were read using a Tecan Safire plate reader using 325 nm excitation and 420 nm emission wavelengths respectively. Except where specified, reagents contained in the Path Scan Phospho AKT (Thr308) sandwich ELISA kit from Cell Signalling (#7144) were used in this ELISA assay.

[2] = molecular target: T1, mTOR (Homo sapiens, UniProt P42345); experiment: Assay d) mTOR cellular potency (phospho-AKT Ser473 in MDA-MB-468 cells)
T1 construct: endogenous in cells; host or cells: MDA-MB-468 cells (ATCC HTB 132)
Method: Assay d): mTOR Cellular Potency
This assay was used to measure mTOR inhibition in cells. The aim of the phospho-AKT cell based mechanism of action assay using the Acumen Explorer is to identify inhibitors of either PI3Kα or mTOR-Rictor (Rapamycin insensitive companion of mTOR). This is measured by any decrease in the phosphorylation of the Akt protein at Ser473 (AKT lies downstream of PI3Kα in the signal transduction pathway) in the MDA-MB-468 cells following treatment with compound. Method Details:
MDA-MB-468 cells (human breast adenocarcinoma #ATCC HTB 132) were seeded at 1500 cells/well in 40 μl of DMEM containing 10% FBS and 1% glutamine into Greiner 384 well black flat-bottomed plates. Cell plates were incubated for 18 h in a 37° C. incubator before dosing with compounds of Formula (I) in 100% DMSO using acoustic dispensing. Compounds were dosed in a 12 point concentration range into a randomised plate map. Control wells were generated either by dosing of 100% DMSO (max signal) or addition of a reference compound (a PI3K-β inhibitor) that completely eliminated the pAKT signal (min control). Compounds were then tested by one of two assay protocols A or B:
Plates were incubated at 37° C. for 2 h; cells were then fixed by the addition of 10 μl of a 3.7% formaldehyde solution. After 30 minutes the plates were washed with PBS using a Tecan PW384 plate washer. Wells were blocked and cells permeabilised with the addition of 40 μl of PBS containing 0.5% Tween20 and 1% Marvel™ (dried milk powder) and incubated for 60 minutes at r.t. The plates were washed with PBS containing 0.5% (v/v) Tween20 and 20 μl rabbit anti-phospho AKT Ser473 (Cell Signalling Technologies, #3787) in same PBS-Tween+1% Marvel™ was added and incubated overnight at 4° C.
Plates were washed 3 times with PBS+0.05% Tween 20 using a Tecan PW384. 20 μl of secondary antibody Alexa Fluor 488 anti-Rabbit (Molecular Probes, #A11008) diluted in PBS+0.05% Tween20 containing 1% Marvel™ was added to each well and incubated for 1 h at r.t. Plates were washed three times as before then 20 μl PBS added to each well and plates sealed with a black plate sealer.
The plates were read on an Acumen plate reader as soon as possible, measuring green fluorescence after excitation with 488 nm laser. Using this system IC50 values were generated and quality of plates was determined by control wells. Reference compounds were run each time to monitor assay performance.
The cell plates were then incubated for 2 h at 37° C. before being fixed by the addition of 20 μl 3.7% formaldehyde in PBS/A (1.2% final concentration), followed by a 30 minute room temperature incubation, and then a 2× wash with 150 μl PBS/A using a BioTek ELx406 platewasher. Cells were permeabilised and blocked with 20 μl of assay buffer (0.1% Triton X-100 in PBS/A+1% BSA) for 1 h at room temperature, and then washed 1× with 50 μl PBS/A. Primary phospho-AKT (Ser473) D9E XP® rabbit monoclonal antibody (#4060, Cell Signaling Technology) was diluted 1:200 in assay buffer, 20 μl added per well, and plates were incubated at 4° C. overnight. Cell plates were washed 3× with 200 μl PBS/T, then 20 μl 1:750 dilution in assay buffer of Alexa Fluor® 488 goat anti-rabbit IgG secondary antibody (#A11008, Molecular Probes, Life Technologies), with a 1:5000 dilution of Hoechst 33342, was added per well. Following a 1 h incubation at room temperature, plates were washed 3× with 200 μl PBS/T, and 40 μl PBS w/o Ca, Mg and Na Bicarb (Gibco #14190-094) was added per well.
Stained cell plates were covered with black seals, and then read on the Cell Insight imaging platform (Thermo Scientific), with a 10× objective. The primary channel (Hoechst blue fluorescence 405 nM, BGRFR_386_23) was used to Autofocus and to count number of events (this provided information about cytotoxicity of the compounds tested). The secondary channel (Green 488 nM, BGRFR_485_20) measured pAKT staining. […]

[3] = molecular target: T2, ATM kinase (Homo sapiens, UniProt Q13315); experiment: Assay a) ATM cellular potency (pATM Ser1981 in X-ray irradiated HT29 cells); conditions: HT29 cells, 1 h compound, X-ray ~600 cGy, pATM Ser1981; may be geometric mean of several tests; read-out: Assay a) ATM Cell IC50
T2 construct: endogenous in cells; host or cells: HT29 cells (ECACC #85061109)
T2 sequence (Q13315 whole entry): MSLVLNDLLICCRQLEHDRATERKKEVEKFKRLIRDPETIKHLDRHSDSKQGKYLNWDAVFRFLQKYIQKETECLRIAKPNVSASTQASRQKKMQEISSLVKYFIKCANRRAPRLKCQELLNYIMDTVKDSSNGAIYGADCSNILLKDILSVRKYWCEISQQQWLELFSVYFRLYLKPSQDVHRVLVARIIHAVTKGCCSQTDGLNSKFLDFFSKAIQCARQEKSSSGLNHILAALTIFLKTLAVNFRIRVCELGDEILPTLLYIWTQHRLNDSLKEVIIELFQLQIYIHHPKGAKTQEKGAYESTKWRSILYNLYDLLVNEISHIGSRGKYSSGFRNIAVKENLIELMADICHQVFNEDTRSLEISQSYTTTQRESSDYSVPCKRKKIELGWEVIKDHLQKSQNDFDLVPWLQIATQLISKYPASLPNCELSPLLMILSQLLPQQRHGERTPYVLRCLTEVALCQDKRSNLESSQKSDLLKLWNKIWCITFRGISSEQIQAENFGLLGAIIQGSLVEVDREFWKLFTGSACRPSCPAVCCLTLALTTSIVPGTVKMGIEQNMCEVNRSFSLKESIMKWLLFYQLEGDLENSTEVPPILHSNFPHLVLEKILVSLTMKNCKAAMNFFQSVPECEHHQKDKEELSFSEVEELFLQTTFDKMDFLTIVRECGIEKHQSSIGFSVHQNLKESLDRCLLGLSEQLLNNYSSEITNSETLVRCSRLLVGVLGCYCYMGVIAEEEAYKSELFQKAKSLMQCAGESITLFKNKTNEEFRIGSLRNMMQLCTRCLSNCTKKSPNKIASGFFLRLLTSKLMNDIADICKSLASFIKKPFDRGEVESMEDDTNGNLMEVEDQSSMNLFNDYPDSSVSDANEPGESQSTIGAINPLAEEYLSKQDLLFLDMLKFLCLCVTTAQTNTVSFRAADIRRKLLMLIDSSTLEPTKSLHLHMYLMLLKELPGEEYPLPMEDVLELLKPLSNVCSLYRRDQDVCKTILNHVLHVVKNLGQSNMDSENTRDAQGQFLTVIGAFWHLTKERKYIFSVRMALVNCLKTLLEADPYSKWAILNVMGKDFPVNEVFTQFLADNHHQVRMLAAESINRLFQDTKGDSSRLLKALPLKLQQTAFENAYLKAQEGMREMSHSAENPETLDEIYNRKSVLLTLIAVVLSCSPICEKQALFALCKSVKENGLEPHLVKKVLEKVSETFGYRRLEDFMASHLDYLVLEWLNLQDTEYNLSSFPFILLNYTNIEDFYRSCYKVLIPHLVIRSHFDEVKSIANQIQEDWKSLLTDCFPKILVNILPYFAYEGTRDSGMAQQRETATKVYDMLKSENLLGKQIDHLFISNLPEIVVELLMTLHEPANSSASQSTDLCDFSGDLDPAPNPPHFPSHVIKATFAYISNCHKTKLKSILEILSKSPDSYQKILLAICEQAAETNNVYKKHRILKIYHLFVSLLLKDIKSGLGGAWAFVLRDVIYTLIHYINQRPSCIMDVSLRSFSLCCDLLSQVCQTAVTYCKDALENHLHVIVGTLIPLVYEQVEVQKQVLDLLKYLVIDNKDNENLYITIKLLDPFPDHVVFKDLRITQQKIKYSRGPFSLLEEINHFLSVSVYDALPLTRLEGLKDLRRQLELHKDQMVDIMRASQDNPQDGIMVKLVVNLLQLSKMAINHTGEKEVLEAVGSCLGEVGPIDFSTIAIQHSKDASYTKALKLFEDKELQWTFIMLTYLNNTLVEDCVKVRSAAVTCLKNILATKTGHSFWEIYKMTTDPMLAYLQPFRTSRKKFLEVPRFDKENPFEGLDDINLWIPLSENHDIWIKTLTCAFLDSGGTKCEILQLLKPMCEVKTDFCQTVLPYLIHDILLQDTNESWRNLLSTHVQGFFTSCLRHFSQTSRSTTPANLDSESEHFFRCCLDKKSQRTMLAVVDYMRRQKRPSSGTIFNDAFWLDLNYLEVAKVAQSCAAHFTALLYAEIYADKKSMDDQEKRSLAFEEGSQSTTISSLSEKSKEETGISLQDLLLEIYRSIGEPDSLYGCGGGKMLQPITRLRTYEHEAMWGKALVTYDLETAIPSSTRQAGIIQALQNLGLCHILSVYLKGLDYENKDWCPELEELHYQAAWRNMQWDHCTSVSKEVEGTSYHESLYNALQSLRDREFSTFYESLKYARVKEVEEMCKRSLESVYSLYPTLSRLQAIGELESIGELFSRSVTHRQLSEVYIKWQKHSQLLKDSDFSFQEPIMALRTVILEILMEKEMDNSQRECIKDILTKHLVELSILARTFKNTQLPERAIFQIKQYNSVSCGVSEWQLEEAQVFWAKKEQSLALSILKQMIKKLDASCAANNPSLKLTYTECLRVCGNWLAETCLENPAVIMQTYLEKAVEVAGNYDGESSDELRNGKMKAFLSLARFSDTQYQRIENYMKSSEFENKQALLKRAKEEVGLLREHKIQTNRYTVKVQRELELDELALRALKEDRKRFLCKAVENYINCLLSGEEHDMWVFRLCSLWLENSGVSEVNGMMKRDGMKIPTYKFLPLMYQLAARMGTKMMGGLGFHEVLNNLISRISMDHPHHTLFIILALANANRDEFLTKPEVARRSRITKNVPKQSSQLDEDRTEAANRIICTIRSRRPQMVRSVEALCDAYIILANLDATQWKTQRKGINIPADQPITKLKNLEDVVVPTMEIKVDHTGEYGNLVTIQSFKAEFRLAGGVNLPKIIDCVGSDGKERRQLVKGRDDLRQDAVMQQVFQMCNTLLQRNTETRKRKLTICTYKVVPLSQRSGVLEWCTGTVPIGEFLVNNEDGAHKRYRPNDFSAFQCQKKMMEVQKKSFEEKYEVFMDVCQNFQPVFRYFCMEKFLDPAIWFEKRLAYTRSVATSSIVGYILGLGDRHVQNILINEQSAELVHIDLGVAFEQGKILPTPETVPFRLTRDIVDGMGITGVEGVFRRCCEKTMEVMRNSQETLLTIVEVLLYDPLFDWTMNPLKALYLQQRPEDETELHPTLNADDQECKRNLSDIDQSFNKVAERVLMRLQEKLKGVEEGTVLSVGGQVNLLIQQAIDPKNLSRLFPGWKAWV
Method: The following assays were used to measure the effects of the compounds of the present invention: a) ATM cellular potency assay; b) PI3K cellular potency assay; c) mTOR cellular potency assay; d) ATR cellular potency assay. During the description of the assays, generally: • i. […] IC50 values were calculated using a smart fitting model in Genedata. […] Assay a): ATM Cellular Potency Rationale:
Most ATM molecules in the cell are rapidly phosphorylated on this site after doses of radiation as low as 0.5 Gy, and binding of a phosphospecific antibody is detectable after the introduction of only a few DNA double-strand breaks in the cell.
The rationale of the pATM assay is to identify inhibitors of ATM in cells. HT29 cells are incubated with test compounds for 1 hr prior to X-ray-irradiation. 1 h later the cells are fixed and stained for pATM (Ser1981). The fluorescence is read on the arrayscan imaging platform.
The following morning compounds of Formula (I) in 100% DMSO were added to assay plates by acoustic dispensing. After 1 h incubation at 37° C. and 5% CO2, plates (up to 6 at a time) were irradiated using the X-RAD 320 instrument (PXi) with equivalent to ˜600 cGy. Plates were returned to the incubator for a further 1 h. […] Then 20 μl of 0.1% Triton X100 in PBS was added and incubated for 20 minutes at r.t., to permeabalise cells. Then the plates were washed once with 50 μl/well PBS, using a Biotek EL405 plate washer.
After 1 h incubation at r.t., the plates were washed three times with 50 μl/well PBS, using a Biotek EL405 plate washer, and plates were sealed and kept in PBS at 4° C. until read. Plates were read using an ArrayScan VTI instrument, using an XF53 filter with 10× objective.

[4] = molecular target: T3, ATR kinase (Homo sapiens, UniProt Q13535); experiment: Assay b) ATR cellular potency (pChk1 Ser345 in HT29 cells after 4NQO); conditions: HT29 cells, 4NQO, pChk1 Ser345; may be geometric mean of several tests; read-out: Assay b) ATR Cell IC50
T3 construct: measuring a decrease in phosphorylation of Chk1 (Ser 345) in HT29 cells; endogenous in cells; host or cells: HT29 cells (ECACC #85061109)
Description: Assay b): ATR Cellular Potency
ATR is a PI 3-kinase-related kinase which phosphorylates multiple substrates on serine or threonine residues in response to DNA damage during or replication blocks. Chk1, a downstream protein kinase of ATR, plays a key role in DNA damage checkpoint control. Activation of Chk1 involves phosphorylation of Ser317 and Ser345 (the latter regarded as the preferential target for phosphorylation/activation by ATR).
The following morning compound of Formula (I) in 100% DMSO were added to assay plates by acoustic dispensing. After 1 h incubation at 37° C. and 5% CO2. 40 nl of 3 mM 4NQO in 100% DMSO was added to all wells by acoustic dispensing, except minimum control wells which were left untreated with 4NQO to generate a null response control. Plates were returned to the incubator for a further 1 h. […] Then 20 μl of 0.1% Triton X100 in PBS was added and incubated for 10 minutes at r.t., to permeabalise cells. Then the plates were washed once with 50 μl/well PBS, using a Biotek EL405 plate washer.
After 2 h incubation at r.t., the plates were washed three times with 50 μl/well PBS, using a Biotek EL405 plate washer, and plates were then sealed with black plate seals until read. Plates were read using an ArrayScan VTI instrument, using an XF53 filter with 10× objective.

[5] = pAKT Ser473, Protocol B (*); read-out: Assay d) mTOR Cell IC50

PI3K-α, sequence (P42336 whole entry): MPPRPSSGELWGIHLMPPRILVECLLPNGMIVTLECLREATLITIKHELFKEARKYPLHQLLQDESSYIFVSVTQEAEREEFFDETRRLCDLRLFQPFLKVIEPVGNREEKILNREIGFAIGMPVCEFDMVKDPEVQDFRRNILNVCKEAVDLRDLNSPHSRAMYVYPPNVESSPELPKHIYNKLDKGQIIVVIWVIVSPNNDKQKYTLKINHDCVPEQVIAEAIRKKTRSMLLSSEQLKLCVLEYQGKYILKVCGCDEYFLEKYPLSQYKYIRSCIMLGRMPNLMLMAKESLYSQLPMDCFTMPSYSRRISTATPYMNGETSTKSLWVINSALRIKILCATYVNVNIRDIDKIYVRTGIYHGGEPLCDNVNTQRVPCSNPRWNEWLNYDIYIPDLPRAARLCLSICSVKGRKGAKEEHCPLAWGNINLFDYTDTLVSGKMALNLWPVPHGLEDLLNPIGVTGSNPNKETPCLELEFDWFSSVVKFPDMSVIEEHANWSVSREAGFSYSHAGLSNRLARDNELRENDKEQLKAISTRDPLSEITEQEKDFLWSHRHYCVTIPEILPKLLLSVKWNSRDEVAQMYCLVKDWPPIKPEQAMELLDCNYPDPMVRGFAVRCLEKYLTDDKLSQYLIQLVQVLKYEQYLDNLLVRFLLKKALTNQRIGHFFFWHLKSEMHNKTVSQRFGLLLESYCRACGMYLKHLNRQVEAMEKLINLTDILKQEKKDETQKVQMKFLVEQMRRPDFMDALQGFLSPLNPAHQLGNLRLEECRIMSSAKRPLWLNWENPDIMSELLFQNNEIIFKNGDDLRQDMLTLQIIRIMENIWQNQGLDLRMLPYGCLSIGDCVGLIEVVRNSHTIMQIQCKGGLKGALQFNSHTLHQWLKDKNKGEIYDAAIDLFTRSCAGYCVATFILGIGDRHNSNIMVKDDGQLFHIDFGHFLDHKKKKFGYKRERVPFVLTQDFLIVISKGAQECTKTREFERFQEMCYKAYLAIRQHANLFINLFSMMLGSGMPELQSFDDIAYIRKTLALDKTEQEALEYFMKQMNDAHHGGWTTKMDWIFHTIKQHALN

| Compound | IC50 [1] [nM] | IC50 [2, 5] [nM] | IC50 [3] [nM] | IC50 ([2]; pAKT Ser473, Protocol A (§); read-out: Assay d) mTOR Cell IC50) [nM] | IC50 [4] [nM] |
| --- | --- | --- | --- | --- | --- |
| CC(C)n1c(=O)n(C)c2cnc3ccc(-c4ccc(OCCCN5CCCCC5)nc4)cc3c21 [Example 5, 1-Isopropyl-3-methyl-8-[6-[3-(l-piperidyl)propoxy]-3-pyridyl]imidazo[4,5-c]quinolin-2-one] | 1240 | 6760 | – | – | – |
| CC(C)n1c(=O)n(C)c2cnc3cc(F)c(-c4ccc(OCCCN(C)C)nc4F)cc3c21 [Example 11, 8-[6-[3-(dimethylamino)propoxy]-2-fluoro-3-pyridyl]-7-fluoro-1-isopropyl-3-methyl-imidazo[4,5-c]quinolin-2-one] | – | – | 2.28 | 23600 | > 30000 |
| Cn1c(=O)n(C2CC2)c2c3cc(-c4cnc5[nH]ccc5c4)ccc3ncc21 [CN102399218A Compound 62, reference compound] | – | – | 135 | – | 55.3 |
| CC(C)n1c(=O)n(C)c2cnc3cc(F)c(-c4ccc(OCCCN(C)C)nc4)cc3c21 [Example 1, 8-[6-[3-(Dimethylamino)propoxy]-3-pyridyl]-7-fluoro-1-isopropyl-3-methyl-imidazo[4,5-c]quinolin-2-one] | 13400 | > 30000 | – | – | > 30000 |
| CC(C)n1c(=O)n(C)c2cnc3ccc(-c4ccc(OCCCN5CCC5)nc4F)cc3c21 [Example 15, 8-[6-[3-(azetidin-1-yl)propoxy]-2-fluoro-3-pyridyl]-1-isopropyl-3-methyl-imidazo[4,5-c]quinolin-2-one] | – | > 300 | 2.14 | – | > 30000 |
| CC(C)n1c(=O)[nH]c2cnc3cc(F)c(-c4ccc(OCCCN(C)C)nc4)cc3c21 [Example 17, 8-[6-[3-(Dimethylamino)propoxy]-3-pyridyl]-7-fluoro-1-isopropyl-3H-imidazo[4,5-c]quinolin-2-one] | – | > 10000 | 4.61 | – | > 30000 |

From US10457679B2, “Imidazo[4,5-c]quinolin-2-one compounds and their use in treating cancer” (AstraZeneca AB, priority 2015, dated 2019)
